Experimental data reported in publication PMC2724550, “Citrus auraptene suppresses cyclin D1 and significantly delays N-methyl nitrosourea induced mammary carcinogenesis in female Sprague-Dawley rats” (BMC Cancer, 2009).
Marks after values point to notes of the source that are not given here.

What was measured:
[1] = Stability of auraptene in diet by HPLC; format: physicochemical; conditions: animal room conditions, HPLC analysis, data not shown
MCF-7 cells = assay: MCF-7 cell proliferation assay with IGF-1 (MTS); format: cell-based, human; conditions: IGF-1 10 ng/mL, 24 hrs
Procedure: The human breast carcinoma cell line MCF-7 was obtained from ATCC (Manassas, VA) and grown in a sterile humidified environment at 37°C and 5% CO2: 95% air with complete DMEM media. The MCF-7 cells were plated in a 96 well plate at 30,000 cells/well at a confluency of 40%. The cells were serum starved for 24 h. At 22 h of serum starvation, the cells were treated with auraptene at 1 – 50 μM auraptene in DMSO (0.1%, v/v). The control cells received vehicle only (DMSO, 0.1% v/v). At 24 h of serum starvation, the cells were treated with IGF-1(10 ng/mL). After 24 hrs of IGF-1 treatment, the cells were treated with MTS [3-(4,5-dimethylthiazol-2-yl)-5-(3-carboxy methoxy phenyl)-2-(4-sulfophenyl)-2H-tetrazolium], for 2 h and the absorbance was measured at 490 nm.
Figure 2 Effects of auraptene on human breast carcinoma cells. (A) Effects of auraptene on MDA-MB-231 cell proliferation. Cells were serum starved for 5 h and then treated with 1–50 μM auraptene in 0.01% DMSO. Cell proliferation was assessed using the MTT reagent. Figures represent % vehicle control (means ± S.E.) # Replicates = 2 plates at 6 wells each for the treatment groups and 12 wells for the control group (* statistically different from control group, p < 0.05, One-way ANOVA, Tukey test). (B) Effects of auraptene on MCF-7 cell proliferation. Cells were serum starved for 24 h. […] Cell proliferation was assessed using the MTS reagent. […]

[2] = tested on: N-methyl nitrosourea (MNU) induced mammary carcinogenesis; assay: MNU-induced rat mammary carcinogenesis study, dietary auraptene; format: in vivo, female Sprague-Dawley rats; conditions: for Incidence (percentage of rats with tumor) / Multiplicity (average number of tumors per rat): means ± SE; for tumor burden: average tumor weight per rat / tumor burden: total tumor weights per rat: at necropsy
Procedure: A total of 128 female Sprague-Dawley rats (28 days of age), purchased from Harlan Teklad (Madison, WI), were used for this experiment. They were housed two per cage, in a temperature and humidity controlled AAALAC facility under 12 h light/dark cycle. All procedures were approved by LSUHSC Institutional Animal Care and Use Committee in accordance with NIH guidelines. They were fed test diets as described below and allowed access to food and water ad libitum.
Rats (28 days of age) were divided up randomly into groups of 24–26 each and were handled daily to get them accustomed to human touch. At 42 days of age the rats were shifted to the test diet. Control group and MNU only group were fed with Teklad (powdered diet) only. MNU/Auraptene 200 ppm group and MNU/Auraptene 500 ppm group received 200 ppm and 500 ppm of auraptene respectively, mixed in the diet for the duration of the study. The doses were selected from the pilot study conducted with a small number of animals. In addition to the 200 ppm dose of auraptene, which indicated the chemopreventive effect of auraptene, a higher dose of auraptene at 500 ppm was added to this study to see any increased chemopreventive effects. Auraptene has been administered in diet at 100 ppm and 500 ppm in other models of cancer. The diet was prepared once a week and stored in cold room. The food was replaced on Monday, Wednesday and Friday or as needed. […] At 50 days of age all the groups except the control group received intraperitoneal MNU injection (50 mg/kg bw in sterile acidified saline). The control group received vehicle only. The rats were palpated for tumors twice a week starting at 2 weeks after MNU administration. Any tumors felt during palpation were recorded by location. The rats were weighed once a week. A diet consumption analysis was done once to see if rats were consuming enough feed across all the groups and there was no significant difference in food consumption between the groups (data not shown). Any rats found to be moribund during the study were sacrificed within 24 h and necropsied. At 18 weeks after MNU administration, rats were euthanized by carbon dioxide asphyxiation and necropsied. The tumor location and weight of the tumor were marked in the necropsy sheet. Mammary fat pads and the tumors were collected in formalin, OCT compound and liquid nitrogen.
The rat body weight data was compared between groups by One-Way ANOVA followed by Tukey test. Groups were compared for the total number of tumors per rat by the nonparametric Kruskal-Wallis test. Time to tumor was estimated and compared among groups using survival curve analysis by the Log-rank test. The Cochran-Armitage test was used to test for trends in binomial response to different dose levels. Analysis was performed using StatXact (Cytel Software Corporation, Cambridge MA) and SPSS (SPSS Inc., Chicago IL). The cell proliferation assays and western blot data were analyzed by One-Way ANOVA followed by Tukey test.

[3] = 200 ppm in diet, 112 days (16 weeks) after MNU
[4] = 200 ppm in diet, 126 days (18 weeks) after MNU
[5] = 200 ppm in diet, 126 days (18 weeks) after MNU, listed as Aur.
[6] = 500 ppm in diet, 16 weeks, vs MNU only group
[7] = 500 ppm in diet, 112 days (16 weeks) after MNU
[8] = 500 ppm in diet, 126 days (18 weeks) after MNU
[9] = 500 ppm in diet, 126 days (18 weeks) after MNU, listed as Aur.

CC(C)=CCC/C(C)=C/COc1ccc2ccc(=O)oc2c1 [auraptene]
stability in diet [1]: not degraded
suppression of MCF-7 cell proliferation (MCF-7 cells; 20 μM auraptene): 26%
suppression of MCF-7 cell proliferation (MCF-7 cells; 50 μM auraptene): 49%
Median time to tumor ([2]; 200 ppm in diet): 91 days
first palpable tumor after MNU injection ([2]; 200 ppm in diet): 38 days
Incidence (percentage of rats with tumor) [2, 3]: 76.9 ± 8.4%
Multiplicity (average number of tumors per rat) [2, 3]: 1.69 ± 0.27
Incidence (percentage of rats with tumor) [2, 4]: 81%
Multiplicity (average number of tumors per rat) [2, 4]: 2.08
Incidence (percentage of rats with tumor) [2, 5]: 80.7 ± 7.8%
Multiplicity (average number of tumors per rat) [2, 5]: 2.08 ± 0.33
tumor burden: average tumor weight per rat ([2]; 200 ppm in diet): 2.94 ± 0.79 grams
tumor burden: total tumor weights per rat ([2]; 200 ppm in diet): 6.52 ± 1.49 grams
delay of median time to tumor ([2]; 200 ppm in diet, compared to MNU group): 11 days
Median time to tumor ([2]; 500 ppm in diet): 119 days
first palpable tumor after MNU injection ([2]; 500 ppm in diet): 49 days
inhibition of tumor multiplicity [2, 6]: 37%
suppression of tumor incidence [2, 6]: 46%
Incidence (percentage of rats with tumor) [2, 7]: 45.8 ± 10.4^b %
Multiplicity (average number of tumors per rat) [2, 7]: 1.21 ± 0.35^c
Incidence (percentage of rats with tumor) [2, 8]: 67%
Multiplicity (average number of tumors per rat) [2, 8]: 2.0
Incidence (percentage of rats with tumor) [2, 9]: 66.7 ± 9.8%
Multiplicity (average number of tumors per rat) [2, 9]: 2.00 ± 0.43
tumor burden: average tumor weight per rat ([2]; 500 ppm in diet): 1.79 ± 0.54 grams
tumor burden: total tumor weights per rat ([2]; 500 ppm in diet): 6.50 ± 2.10 grams
delay of median time to tumor ([2]; 500 ppm in diet, compared to MNU only group): 39 days
total number of tumors in group ([2]; 500 ppm in diet, end of study, MNU only group had 65): 48 tumors
Median time to tumor ([2]; 500 ppm in diet, listed as Aur.): 119^d days
